Where “and” joins values, the source holds several entries; their conditions need not be identical. Identical values can stand only once. Entries after “also recorded” stand apart in the source; their conditions may differ. Like-named read-outs stand apart in the source and are kept apart here.
Columns and labels:
arNOX [1] = conditions: Morré et al., 2008, BioFactors 32:231-235; cited from earlier work
arNOX [2] = assay: arNOX inhibition assay (superoxide-dependent reduction of ferric cytochrome c); format: biochemical, human
Procedure: Reduction of ferric cytochrome c by superoxide was employed as a standard measure of superoxide formation (Mayo, L. A. and Curnutte, J., 1990, Meth. Enzyme. 186:567-575; Butler, J. et al., 1982, J. Biol. Chem. 257:10747-10750). This is a widely accepted method when coupled to superoxide dismutase inhibition for the measurement of superoxide generation. The assay consists of 150 μl buffy coats in PBSG buffer (8.06 g NaCl, 0.2 g KCl, 0.18 g Na2HPO4, 0.13 g CaCl2, 0.1. g MgCl2, 1.35 g glucose dissolved in 1000 ml deionized water, adjusted to pH 7.4, filtered and stored at 4° C.). Rates were determined using an SLM Aminco DW-2000 spectrophotometer (Milton Roy, Rochester, N.Y., USA) in the dual wave length mode of operation with continuous measurements over 1 min every 1.5 min. After 45 min, test compounds were added and the reaction was continued for an additional 45 min. After 45 min, a millimolar extinction coefficient of 19.1 cm^−1 was used for reduced ferricytochrome c. Extracts were made of the potentially inhibitory compounds in water unless otherwise indicated.
Infusions are prepared by adding 125 mg material (for herbs or spices, dry weight) to 1 ml boiling water. The solutions are allowed to cool slowly and steep at room temperature overnight. Pure compounds (gallic acid, apigenin, derivatives of benzoic acid) are prepared as 100 mM stock solutions in water, ethanol or DMSO, depending on solubility in a particular liquid.
Tinctures are prepared by adding […] of material (fresh weight) to 1 ml ethanol and allowed to steep overnight (or from about 3-30 hours, about 6-24, or about 12-20 or about 18 hours). Insoluble and particulate material is allowed to sediment, and the soluble material is decanted. Tinctures, infusions and stock solutions of pure compounds are tested undiluted, diluted 1:10, 1:100 and 1:1000 to determine EC50 (the dose which causes 50% inhibition of arNOX activity). For tinctures or infusions, aliquots of 60 μl are added to 2.5 ml arNOX assay. For stock solutions (undiluted or diluted), aliquots of 2.5 μl are added to 2.5 ml arNOX assay. For example, addition of an undiluted 100 mM stock solution results in a final concentration of 100 μM in the assay.

salivary arNOX = assay: Kinetics of salivary arNOX inhibition after oral administration to a volunteer; format: in vivo, human; conditions: single oral dose at time 0 h, subject
Procedure: To determine the kinetics of arNOX inhibition, capsules containing 350 to 700 mg of selected seasonings and active ingredients were administered orally to a volunteer and the arNOX activity of collected saliva was analyzed serially. arNOX activity of saliva and sera correlate closely (FIG. 14) such that salivary arNOX is reflective of the inhibition of serum arNOX.

arNOX [3] = tested on: T1, arNOX; assay: arNOX inhibition assay (superoxide-dependent reduction of ferric cytochrome c); format: biochemical, human; conditions: read-out: EC50 (dose which causes 50% inhibition of arNOX activity)
T1 construct: other: infusion; human saliva

Solubility in water = format: physicochemical

## COC1=C(OC)C(=O)C(C/C=C(\C)CC/C=C(\C)CC/C=C(\C)CC/C=C(\C)CC/C=C(\C)CC/C=C(\C)CC/C=C(\C)CC/C=C(\C)CC/C=C(\C)CCC=C(C)C)=C(C)C1=O [CoQ10]
arNOX [1]
  inhibition of arNOX activity of aging cells: inhibited

## O=P(O)(O)O[C@H]1[C@H](OP(=O)(O)O)[C@@H](OP(=O)(O)O)[C@H](OP(=O)(O)O)[C@@H](OP(=O)(O)O)[C@H]1OP(=O)(O)O [phytic acid]
arNOX [2]
  arNOX inhibition (in words): inhibited arNOX to varying degrees

## (±)-catechin
arNOX [2]
  arNOX inhibition (in words): inhibits arNOX; also recorded: potent arNOX inhibitor
  effective final concentration: 100 μM and 300 ng/mL

## O=C(O)c1cc(O)c(O)c(O)c1 [gallic acid, 3,4,5-trihydroxybenzoic acid]
arNOX [2]
  arNOX inhibition (in words): active
  effective final concentration: 0.14 μM and 10 ng/mL
Salivary arNOX
  maximum inhibition of salivary arNOX: 84%
  time of maximum inhibition of salivary arNOX: 8 h

## O[C@H]1[C@H](O)[C@@H](O)[C@H](O)[C@@H](O)[C@H]1O [inositol]
arNOX [2]
  arNOX inhibition (in words): inhibited arNOX to varying degrees

## Cc1cc(C)cc(C(=O)O)c1 [3,5-dimethylbenzoic acid]
arNOX [2]
  arNOX inhibition (in words): most inhibitory
arNOX [3]
  EC50: 200 nM

## OCc1ccccc1O[C@@H]1O[C@H](CO)[C@@H](O)[C@H](O)[C@H]1O [salicin, reference compound]
arNOX [2]
  arNOX inhibition (in words): inhibited arNOX to varying degrees
arNOX [2]; FIG. 1
  type of arNOX inhibition from kinetic data: competitive inhibitor

## COC1=C(OC)C(=O)C(C/C=C(\C)CC/C=C(\C)CC/C=C(\C)CC/C=C(\C)CC/C=C(\C)CC/C=C(\C)CC/C=C(\C)CC/C=C(\C)CCC=C(C)C)=C(C)C1=O [CoQ9]
arNOX [1]
  inhibition of arNOX activity of aging cells: inhibited

## COC1=C(OC)C(=O)C(C/C=C(\C)CC/C=C(\C)CC/C=C(\C)CC/C=C(\C)CC/C=C(\C)CC/C=C(\C)CC/C=C(\C)CCC=C(C)C)=C(C)C1=O [CoQ8]
arNOX [1]
  inhibition of arNOX activity of aging cells: inhibited

## O=c1cc(-c2ccc(O)cc2)oc2cc(O)cc(O)c12 [apigenin aglycone, apigenin]
arNOX [2]; 10 μM, supplied as DMSO solution
  inhibition of arNOX activity at 10 μM: inhibited arNOX activity
Solubility in water
  water solubility: insoluble in water
Solubility in water; listed as apigenin
  water solubility: low water solubility

## Oc1ncnc2[nH]ncc12 [allopuranol, reference compound]
arNOX [2]
  arNOX inhibition (in words): inhibited arNOX to varying degrees

— patent US20120207862A1, “ORAL INHIBITORS OF AGE-RELATED NADH OXIDASE (arNOX), COMPOSITIONS AND NATURAL SOURCES” (priority 2010, published 2012)
